In brackets after ≈: the same amount, converted by molar mass.
system: freshwater blue-green alga (Microcystis aeruginosa); assay: Inhibition of propagation of freshwater algae (Example 6); assay type: cell-based; conditions: 500ppb, 72hr, read-out: Propagation inhibiting rate(%) 500ppb 72hr
Experimental: (§1) A predetermined amount each of the compounds of the invention was dissolved in a culture medium containing 10^5 /ml of a freshwater alga at a logarithmic growth phase to prepare samples having a concentration of the compound of the invention in the medium of 500 ppb and 50 ppb respectively. A shaking culture at 100 rpm was performed for […] under continuous illumination at 20±2 °C for freshwater diatom and at 23±2 °C for other algae.
(§2) After 72 hours and 168 hours, the […] of cells was measured using a hemacytometer to obtain propagation rate. The propagation inhibiting rate was calculated from comparison with the non-treated lot. Symbols in the tables mean the followings; • A: freshwater green alga (Chlorella pyrenoidosa), • B: freshwater blue-green alga (Microcystis aeruginosa), • C: freshwater diatom (Diatoma elongatum), • D: freshwater green alga (Scenedesmus pannonicus).

SMILES	inhibition at 0.5 ppm
Clc1ccc(CNCc2c(Cl)cccc2Cl)cc1Cl [Compound 15]	92%
CN(Cc1ccc(Cl)cc1)Cc1cccc2ccccc12 [Compound 31]	90%

same assay, conditions: 500ppb, 168hr, read-out: Propagation inhibiting rate(%) 500ppb 168hr

SMILES	inhibition at 0.5 ppm
Clc1ccc(CNCc2c(Cl)cccc2Cl)cc1Cl [Compound 15]	100%
CN(Cc1ccc(Cl)cc1)Cc1cccc2ccccc12 [Compound 31]	100%

system: freshwater green alga (Scenedesmus pannonicus); assay: as above; assay type: cell-based; conditions: Desmodesmus pannonicus, 500ppb, 72hr, read-out: Propagation inhibiting rate (%) 500ppb 72hr
Experimental: as §1, §2

SMILES	inhibition at 0.5 ppm
Clc1ccc(CNCc2c(Cl)cccc2Cl)cc1Cl [Compound 15]	95%

same assay, conditions: Desmodesmus pannonicus, 500ppb, 168hr, read-out: Propagation inhibiting rate (%) 500ppb 168hr

SMILES	inhibition at 0.5 ppm
Clc1ccc(CNCc2c(Cl)cccc2Cl)cc1Cl [Compound 15]	98%
CN(Cc1ccc(Cl)cc1)Cc1cccc2ccccc12 [Compound 31]	79%

system: freshwater diatom (Diatoma elongatum); assay: as above; assay type: cell-based; conditions: Diatoma tenuis, 50ppb, 72hr, read-out: Propagation inhibiting rate(%) 50ppb 72hr
Experimental: as §1, §2

SMILES	inhibition at 0.05 ppm
CN(Cc1ccc(Cl)cc1)Cc1cccc2ccccc12 [Compound 31]	61%

same assay, conditions: Diatoma tenuis, 50ppb, 168hr, read-out: Propagation inhibiting rate(%) 50ppb 168hr

SMILES	inhibition at 0.05 ppm
CN(Cc1ccc(Cl)cc1)Cc1cccc2ccccc12 [Compound 31]	87%

same assay, conditions: Diatoma tenuis, 500ppb, 72hr, read-out: Propagation inhibiting rate(%) 500ppb 72hr

SMILES	inhibition at 0.5 ppm
CN(Cc1ccc(Cl)cc1)Cc1cccc2ccccc12 [Compound 31]	81%

same assay, conditions: Diatoma tenuis, 500ppb, 168hr, read-out: Propagation inhibiting rate(%) 500ppb 168hr

SMILES	inhibition at 0.5 ppm
CN(Cc1ccc(Cl)cc1)Cc1cccc2ccccc12 [Compound 31]	95%

system: Trichophyton mentagrophytes; assay: Agar dilution MIC (Example 2); assay type: cell-based; conditions: 168 h, agar plate, 27 °C, 7 days
Experimental: (§3) Series of diluted samples (20000, 10000, 5000, 2500, 2000, 1250, 625, 313, 156, 78, 39, 20, 10, 5, 2.5, 1.25 mg/l) of the compounds of the invention were prepared using dimethylsulfoxide. A sensitive culture medium-N (Nissui Seiyaku Co.) was used for bacteria and a potato dextrose agar culture medium (Nissui Seiyaku Co.) was used for fungi. 0.5 ml of each sample was added to and mixed with 9.5 ml of the culture medium, poured into a Petri dish and solidified to obtain a plate. As a result, the concentration of the compounds of the invention in the agar culture medium were 1000, 500, 250, 125, 100, 62.5, 31.3, 15.6, 7.8, 3.9, 2.0, 1.0, 0.5, 0.25, 0.125, 0.062 mg/l. The bacterium inoculated were cultured in a bouillon for the assay of sensitivity (Nissui Seiyaku Co.) at 37 °C for 20 hours, and the fungi were cultured in the potato dextrose agar culture medium (Nissui Seiyaku Co.) for 10 days and then a 10^6 CFU/ml suspension was prepared from each of them. A test bacteria or fungi suspension was streaked on an agar plate containing the compound of the present invention with platinum wire loop, and the agar plate was cultured at 37±1 °C for 18 to 20 hours for bacteria or at 27 °C for 7 days for fungi. A concentration at which no growth was seen was taken as minimum inhibitory concentration [MIC(mg/l)]. Symbols in the table mean the followings; • A: Bacillus subtilis, • B: Trichophyton mentagrophytes, • C: Rhodotorula mucilaginosa.

MIC	SMILES
0.25 µg/mL (≈ 0.828 µM)	CN(Cc1ccc(C(C)(C)C)cc1)Cc1cccc(Cl)c1 [Compound 10]
< 1 µg/mL	Cc1cccc(CN(C)Cc2ccc(C(C)(C)C)cc2)c1 [Compound 11]
< 1 µg/mL	CN(Cc1ccc(C(C)(C)C)cc1)Cc1cccc(C(F)(F)F)c1 [Compound 12]
< 1 µg/mL	COc1cccc(CN(C)Cc2ccc(C(C)(C)C)cc2)c1 [Compound 13]
1 µg/mL (≈ 3.31 µM)	CN(Cc1ccc(C(C)(C)C)cc1)Cc1ccccc1Cl [Compound 17]
1 µg/mL (≈ 2.97 µM)	CN(Cc1ccc(C(C)(C)C)cc1)Cc1ccc(Cl)cc1Cl [Compound 18]
7.8 µg/mL (≈ 21.8 µM)	CN(Cc1ccc(C(C)(C)C)cc1)Cc1c(F)c(F)c(F)c(F)c1F [Compound 21]
1 µg/mL (≈ 2.97 µM)	CN(Cc1ccc(C(C)(C)C)cc1)Cc1cc(Cl)ccc1Cl [Compound 22]
0.125 µg/mL (≈ 0.372 µM)	CN(Cc1ccc(C(C)(C)C)cc1)Cc1cccc(Cl)c1Cl [Compound 24]
15.6 µg/mL (≈ 50.9 µM)	CN(Cc1ccc(Cl)c(Cl)c1)C1CCc2ccccc21 (centres unmarked) [Compound 25]
1 µg/mL (≈ 3.23 µM)	CN(Cc1ccc(C(C)(C)C)cc1)C1CCOc2ccccc21 (centres unmarked) [Compound 26]
< 0.062 µg/mL	CN(Cc1ccc(C(C)(C)C)cc1)Cc1cccc2ccccc12 [Compound 30]
1 µg/mL (≈ 2.7 µM)	CN(Cc1ccc(C(C)(C)C)cc1)Cc1c(Cl)ccc(Cl)c1Cl [Compound 33]

SMILES	MIC
Clc1ccc(CNCc2c(Cl)cccc2Cl)cc1Cl [Compound 15]	3.9 µg/mL (≈ 11.6 µM)

system: Rhodotorula mucilaginosa; assay: Agar dilution MIC (Example 2); assay type: cell-based; conditions: 168 h, agar plate, 27 °C, 7 days
Experimental: as §3

MIC	SMILES
15.6 µg/mL (≈ 49.1 µM)	CN(Cc1ccc(C(C)(C)C)cc1)Cc1cccc2ccccc12 [Compound 30]

system: Trichophyton mentagrophytes; assay: not given; assay type: cell-based; conditions: 72 h, 100 ppm
Experimental: 31.3 ml of Trichophyton mentagrophytes to be tested was added to 125 ml of a potato dextrose agar culture medium (Nissui Seiyaku Co.). The medium was stirred not to foam the solutions, poured into plates uniformly and solidified.
Thereafter, predetermined amounts of the compounds of the invention were weighted and diluted with acetone to predetermined concentrations.
Paper disks were impregnated with samples containing predetermined amounts of the compounds of the invention, laid on a filter, dried with air and placed on a plate containing test microbe at equal intervals.
Trichophyton mentagrophytes was cultured at 28 °C for 3 days in a thermostatic chamber and the diameter of each inhibiting zone was measured to evaluate the activity of each compound. Symbols in the table mean the followings; • A: Trichophyton mentagrophytes, • ++: strongly inhibiting zone (equal to or more than 21 mm) is observed, • +: inhibiting zone (10 to 20 mm) is observed, • -: no inhibiting zone is observed.

SMILES	Judgment (Target bacteria: A)
CN(Cc1ccc(C(C)(C)C)cc1)Cc1cccc(Cl)c1 [Compound 10]	++ (strongly inhibiting zone (equal to or more than 21 mm) is observed)
CN(Cc1ccc(C(C)(C)C)cc1)Cc1cccc2ccccc12 [Compound 30]	++ (strongly inhibiting zone (equal to or more than 21 mm) is observed)
CN(Cc1ccc(Cl)cc1)Cc1cccc2ccccc12 [Compound 31]	+ (inhibiting zone (10 to 20 mm) is observed)

system: freshwater green alga (Selenastrum capricornutum); assay: Inhibition of propagation of freshwater green alga (Example 4); assay type: cell-based; conditions: 50ppb, after 72 hours, cell number vs non-treated lot, read-out: Propagation inhibiting rate(%) 50ppb
Experimental: A predetermined amount of each of the compounds of the invention was dissolved in a culture medium containing 10^5 /ml of a freshwater green alga (Selenastrum capricornutum) at a logarithmic growth phase to prepare samples having a concentration of the compound of the invention in the medium of 500 ppb and 50ppb respectively. The samples were stationary cultured at 23±1 °C for […] under continuous illumination.
After 72 hours, the number of cells was measured using a hemacytometer to obtain propagation rate. The propagation inhibiting rate was calculated from comparison with the non-treated lot.

SMILES	inhibition at 0.05 ppm
CN(Cc1ccc(C(C)(C)C)cc1)Cc1cccc(Cl)c1 [Compound 10]	87%
Cc1cccc(CN(C)Cc2ccc(C(C)(C)C)cc2)c1 [Compound 11]	70%
CN(Cc1ccc(Cl)cc1)Cc1cccc2ccccc12 [Compound 31]	88%

same assay, conditions: 500ppb, after 72 hours, cell number vs non-treated lot, read-out: Propagation inhibiting rate(%) 500ppb

SMILES	inhibition at 0.5 ppm
CN(Cc1ccc(C(C)(C)C)cc1)Cc1cccc(Cl)c1 [Compound 10]	95%
Cc1cccc(CN(C)Cc2ccc(C(C)(C)C)cc2)c1 [Compound 11]	93%
CN(Cc1ccc(C(C)(C)C)cc1)Cc1cccc(C(F)(F)F)c1 [Compound 12]	90%
COc1cccc(CN(C)Cc2ccc(C(C)(C)C)cc2)c1 [Compound 13]	92%
Clc1ccc(CNCc2c(Cl)cccc2Cl)cc1Cl [Compound 15]	94%
CN(Cc1ccc(C(C)(C)C)cc1)Cc1ccccc1Cl [Compound 17]	83%
CN(Cc1ccc(C(C)(C)C)cc1)Cc1cccc(Cl)c1Cl [Compound 24]	85%
CN(Cc1ccc(Cl)c(Cl)c1)C1CCc2ccccc21 (centres unmarked) [Compound 25]	95%
CN(Cc1ccc(C(C)(C)C)cc1)Cc1cccc2ccccc12 [Compound 30]	94%
CN(Cc1ccc(Cl)cc1)Cc1cccc2ccccc12 [Compound 31]	95%

system: Corynebacterium aquaticum; assay: Agar dilution MIC (Example 3); assay type: cell-based; conditions: Leifsonia aquatica, agar plate, 37±1 °C, 18 to 20 hours
Experimental: (§4) Series of diluted samples (20000, 10000, 5000, 2500, 1250, 625, 313, 156, 78, 39 mg/l) of the compounds of the invention were prepared using dimethylsulfoxide. A sensitive culture medium-N (Nissui Seiyaku Co.) was used for bacteria and a potato dextrose agar culture medium (Nissui Seiyaku Co.) was used for fungi. 0.5 ml of each sample was added to and mixed with 9.5 ml of the culture medium, poured into a Petri dish and solidified to obtain a plate. As a result, the concentration of the compounds of the invention in the agar culture medium were 1000, 500, 250, 125, 62.5, 31.3, 15.6, 7.8, 3.9, 2.0 mg/l. The bacterium inoculated were cultured in a bouillon for the assay of sensitivity (Nissui Seiyaku Co.) at 37 °C for 20 hours, and the fungi were cultured in the potato dextrose agar culture medium (Nissui Seiyaku Co.) for 10 days and then a 10^6 CFU/ml suspension was prepared from each of them. A test bacteria or fungi suspension was streaked on an agar plate containing the compound of the present invention with platinum wire loop, and the agar plate was cultured at 37±1 °C for 18 to 20 hours for bacteria or at 27 °C for 7 days for fungi. A concentration at which no growth was seen was taken as minimum inhibitory concentration (MIC). Symbols in the tables mean the followings; • A: Bacillus subtilis, • B: Trichophyton mentagrophytes, • C: Staphylococcus aureus, • D: Aspergillus niger, • E: Penicillium funiculosum, • F: Candida albicans, • G: Micrococcus luteus, • H: Corynebacterium aquaticum, • I: Chaetomium globosum, • J: Fusarium moniliforme, • K: Saccharomyces cerevisiae, • L: Rhodotorula rubra, • M: Cladosporium cladosporioides, • N: Alternaria alternata.

MIC	SMILES
63 µg/mL (≈ 224 µM)	Cc1cccc(CN(C)Cc2ccc(C(C)(C)C)cc2)c1 [Compound 11]
63 µg/mL (≈ 212 µM)	COc1cccc(CN(C)Cc2ccc(C(C)(C)C)cc2)c1 [Compound 13]

system: Saccharomyces cerevisiae; assay: Agar dilution MIC (Example 3); assay type: cell-based; conditions: 168 h, agar plate, 27 °C, 7 days
Experimental: as §4

MIC	SMILES
125 µg/mL (≈ 373 µM)	CN(Cc1ccc(C(C)(C)C)cc1)Cc1cccc(C(F)(F)F)c1 [Compound 12]

system: Chaetomium globosum; assay: Agar dilution MIC (Example 3); assay type: cell-based; conditions: 168 h, agar plate, 27 °C, 7 days
Experimental: as §4

MIC	SMILES
63 µg/mL (≈ 224 µM)	Cc1cccc(CN(C)Cc2ccc(C(C)(C)C)cc2)c1 [Compound 11]
125 µg/mL (≈ 373 µM)	CN(Cc1ccc(C(C)(C)C)cc1)Cc1cccc(C(F)(F)F)c1 [Compound 12]
